Values quoted from earlier work, collected in patent publication US12179232B2 (priority 2020, dated 2024).

Tested on: coronaviruses
Conditions: 0.05-0.2% benzalkonium chloride or 0.02% chlorhexidine digluconate

| Compound | effectiveness of surface inactivation compared with ethanol, hydrogen peroxide, sodium hypochlorite |
| --- | --- |
| N=C(NCCCCCCNC(=N)NC(=N)Nc1ccc(Cl)cc1)NC(=N)Nc1ccc(Cl)cc1.O=C(O)[C@H](O)[C@@H](O)[C@H](O)[C@H](O)CO.O=C(O)[C@H](O)[C@@H](O)[C@H](O)[C@H](O)CO [chlorhexidine digluconate] | less effective |
| benzalkonium chloride | less effective |
